# Results published in patent US10757943B2, “Thidiazuron mixtures and uses thereof” (Valent BioSciences LLC, priority 2017, dated 2020).
# Tested on: Concord grape vines
# Assay: Bud break and shoot growth of potted dormant Concord grape vines in the greenhouse (Example 1)
# Assay type: in vivo
# Settings: for % bud break (vines with at least one bud break): hydrogen cyanamide 10,000 ppm, 17-0-0 197,100 ppm, 15-0-0 239,060 ppm, ACC 1,000 ppm
# From the text: An aqueous 50% hydrogen cyanamide solution (Sigma-Aldrich, St. Louis, Mo. USA) was used as the source of hydrogen cyanamide. The commercial product, Dormex® contains 50% hydrogen cyanamide (w/v) in water.
# Erger® was used as the source of 15-0-0 fertilizer. (Erger is a registered trademark of Valagro S.P.A., Italy and is available from Helena Chemical Company, Collierville, Tenn., USA). Erger® contains 15% total nitrogen as 3.1% ammoniacal nitrogen, 5.8% nitrate nitrogen and 6.1% urea nitrogen and 3.3% calcium derived from ammonium nitrate, calcium nitrate and urea. As used herein, the term “15-0-0 fertilizer” refers to the Erger® formulation above and all formulations described in International PCT application publication WO/2001/037653A2 by Valagro S.P.A., Italy, which is incorporated, herein, in its entirety.
# CAN-17 was used as the source of 17-0-0 fertilizer. CAN-17 contains 17% total nitrogen as 4.6% ammonium nitrogen and […] nitrate nitrogen and 1.3% urea nitrogen and 8.8% calcium derived from ammonium nitrate and calcium nitrate. CAN-17 is available from J.R. Simplot Company (Boise, Id., USA).
# To assess the ability of mixtures of the invention to promote and synchronize bud break these mixtures were applied to Concord grape vines and examined for bud break (initiation of growth) and subsequent shoot development. Specifically, 1 year old dormant bare rooted Concord grape vines were planted in pots containing Pro-Mix® BX potting soil (Pro-Mix is a registered trademark of and available from Premier Horticulture Ltd.) and pruned to 5 nodes on a single shoot. Aqueous solutions of thidiazuron, hydrogen cyanamide, 15-0-0 fertilizer, 17-0-0 fertilizer and 1-aminocyclopropane-1-carboxylic acid (“ACC”), and mixtures thereof were each applied individually or sequentially or co-applied to the first-year wood of separate Concord grape vines. Plants were grown in the greenhouse for 49 days and evaluated for percent of vines showing bud break, or relief from dormancy, periodically between 7 days and the conclusion of the experiment. […] At 49 days after treatment (DAT), the plants were sacrificed and measured for total number of flower clusters, total new shoot length, longest new shoot, combined new shoot fresh weight and combined new shoot dry weight. New shoot growth is the growth arising from the dormant buds not including the woody growth that was planted and gave rise to the new growth.
# Synergy is calculated by the Abbott method: %Cexp=A+B−(AB/100), where % Cexp is the expected efficacy and in which A and B are the speed of bud break or shoot length or shoot weight given by the single active ingredients. If the ratio between the experimentally observed efficacy of the mixture Cobs and the expected efficacy of the mixture is greater than 1, synergistic interactions are present in the mixture” (Gisi, Synergistic Interaction of Fungicides in Mixtures, The American Phytopathological Society, 86:11, 1273-1279,1996).
# [1] = 49 days post treatment, thidiazuron ppm as in label, other concentrations as in Table 1
compound,measurement,setting,value
"NC1(C(=O)O)CC1 [ACC, 1-aminocyclopropane-1-carboxylic acid]",% bud break (vines with at least one bud break),"7 DAT, thidiazuron 300 ppm unless label states other",0%
same,% bud break (vines with at least one bud break),"10 DAT, thidiazuron 300 ppm unless label states other",11.1%
same,% bud break (vines with at least one bud break),"13 DAT, thidiazuron 300 ppm unless label states other",11.1%
same,% bud break (vines with at least one bud break),"15 DAT, thidiazuron 300 ppm unless label states other",11.1%
same,% bud break (vines with at least one bud break),"17 DAT, thidiazuron 300 ppm unless label states other",11.1%
same,% bud break (vines with at least one bud break),"20 DAT, thidiazuron 300 ppm unless label states other",11.1%
same,% bud break (vines with at least one bud break),"22 DAT, thidiazuron 300 ppm unless label states other",22.2%
same,% bud break (vines with at least one bud break),"24 DAT, thidiazuron 300 ppm unless label states other",22.2%
same,% bud break (vines with at least one bud break),"27 DAT, thidiazuron 300 ppm unless label states other",22.2%
same,% bud break (vines with at least one bud break),"29 DAT, thidiazuron 300 ppm unless label states other",33.3%
same,% bud break (vines with at least one bud break),"31 DAT, thidiazuron 300 ppm unless label states other",33.3%
same,% bud break (vines with at least one bud break),"34 DAT, thidiazuron 300 ppm unless label states other",55.6%
same,% bud break (vines with at least one bud break),"36 DAT, thidiazuron 300 ppm unless label states other",66.7%
same,% bud break (vines with at least one bud break),"38 DAT, thidiazuron 300 ppm unless label states other",77.8%
same,% bud break (vines with at least one bud break),"41 DAT, thidiazuron 300 ppm unless label states other",77.8%
same,% bud break (vines with at least one bud break),"43 DAT, thidiazuron 300 ppm unless label states other",77.8%
same,% bud break (vines with at least one bud break),"49 DAT, thidiazuron 300 ppm unless label states other",77.8%
same,Combined Shoot Dry Weight,[1],1.2 g
same,Combined Shoot Fresh Weight,[1],7.1 g
same,Longest Shoot Length,[1],27.9 cm
same,Total # of Flower Clusters,[1],0.1
same,Total Shoot Length,[1],28.9 cm
same,Dry Weight (g)/25% Bud Break to Harvest (d),combined shoot dry weight at 49 DAT normalised by days from 25% bud break to harvest,0.06 g/day
same,Dry Weight (g)/50% Bud Break to Harvest (d),combined shoot dry weight at 49 DAT normalised by days from 50% bud break to harvest,0.08 g/day
same,Fresh Weight (g)/50% Bud Break to Harvest (d),combined shoot fresh weight at 49 DAT normalised by days from 50% bud break to harvest,0.47 g/day
same,50% Bud Break to Harvest,"harvest at day 49, thidiazuron 300 ppm unless label states other, other concentrations as in Table 1",15 days
same,Initial to 50% Bud Break,"synchrony of bud break, thidiazuron 300 ppm unless label states other, other concentrations as in Table 1",25 days
same,25% Bud Break (DAT),"time to 25% bud break, thidiazuron 300 ppm unless label states other, other concentrations as in Table 1",28 DAT
same,50% Bud Break (DAT),"time to 50% bud break, thidiazuron 300 ppm unless label states other, other concentrations as in Table 1",34 DAT
